Where two headings read alike, the source gives them in different places.
Key:
P. falciparum D10 = assay: In vitro antiplasmodial pLDH assay, chloroquine-sensitive strain D10; assay type: cell-based; conditions: Plasmodium falciparum, read-out: IC50 against D10
Description: (§1) The parasites were continuously cultured in vitro according to the method described by Trager and Jensen but with modifications. The cultures were maintained at 37 °C in O-positive (O^+) human erythrocytes in complete culture medium, which contained RPMI 1640 (Gibco-BRL Laboratories) growth medium supplemented with 25 mM 4-(2-hydroxyethyl)piperazine-1-ethanesulfonic acid (HEPES) (Sigma-Aldrich Chemical Company) buffer, 22 mM glucose (Sigma), 5 g/l albumax (Gibco-BRL Laboratories), 25 mM sodium carbonate (Sigma) and 0.3 mM hypoxanthine (Sigma). In order to control microbial contamination […] gentamicin (Sigma) was added to the culture medium, and to obtain a loosely synchronous ring stage, 5 % sterile aqueous D-sorbitol (Sigma) was used. The antiplasmodial assay was initiated with the parasites in the trophozoite stage and with a parasitaemia and haematocrit of 2 %.
(§2) Non-parasitized erythrocytes were used as a negative control and parasitized erythrocytes, without any test compound, were used as positive control. A full day dose–response was performed for all compounds to determine the concentration inhibiting 50 % of parasite growth (IC50 value). The plates were incubated for 48 h at 37 °C in a gassing chamber containing a mixture of 5 % CO2, 3 % O2 and 92 % […]. In order to quantify parasite viability and to determine the effect of the compounds on the parasite, a parasite lactate dehydrogenase (pLDH) assay was used as described by Makler et al., but with modifications.

P. falciparum K1 = assay: In vitro antiplasmodial pLDH assay, chloroquine-resistant strain K1; assay type: cell-based; conditions: Plasmodium falciparum, read-out: IC50 against K1
Description: as §1, §2

[1] = system: Plasmodium berghei (ANKA strain); assay: In vivo anti-malarial efficacy, Peters' 4-day test; set-up: species or system C57BL/6 mice; conditions: for % reduction of parasitemia Day 9: vs placebo
Description: The chloroquine-sensitive Plasmodium berghei (ANKA strain) was used to assess in vivo anti-malarial efficacy of the test compounds. The parasites were maintained in a C57BL/6 mouse by inoculation with 250 µl of a 1:1 (v/v) suspension of erythrocytes infected with P. berghei in phosphate buffered saline (PBS). On the day of the experiment the host mouse was anaesthetized intraperitoneally with a mixture of ketamine (120 mg/kg) and xylazine (16 mg/kg). Whole blood from the host mouse was drawn by cardiac puncture into a Vacuette® heparin tube and a suspension of P. berghei parasitized erythrocytes (1 × 10^7) in PBS was prepared and the test mice were infected with 200 µl of this suspension intraperitoneally.
Evaluation of the curative potential of the test compounds was performed using Peters’ 4-day test as described. The mice were dosed orally at 20 and 40 mg/kg and intravenously at 4 and 8 mg/kg 2 h post-infection and for three consecutive days (D0 to D3). On the first day (D0), blood samples were collected serially from each mouse at 0.5, 1, 3, and 7 h post-dosing in order to provide quantitative measurements of drug exposure which is needed for the sound interpretation of the efficacy of the anti-malarials. […] The mice were also dosed orally with PBS as a control. The parasitaemia was determined from the […] (D4) by preparing thin blood films from the tail of each mouse and the smears were fixed with methanol and stained with Giemsa. This was repeated every 2–3 days to monitor the efficacy of the test compounds. The formula used to calculate % parasitaemia and % reduction is described below, respectively. The data for % parasitaemia and % reduction of parasitaemia is presented in Table 4. %Parasitaemia =No.ofparasitizedRBCoutof500erythrocytes/Totalno.ofRBCcounted×100 %Reduction =Parasitamiaofplacebo-Parasitamiaoftestcompound/Parasitamiaofplacebo×100

[2] = set-up: method as in earlier work; conditions: mice; ref 25 (Salako); cited from earlier work
P. falciparum 3D7 = assay: In vitro antiplasmodial pLDH assay, chloroquine-sensitive strain 3D7; assay type: cell-based; conditions: Plasmodium falciparum, read-out: IC50 against 3D7
Description: as §1, §2

P. falciparum Dd2 = assay: In vitro antiplasmodial pLDH assay, chloroquine-resistant strain Dd2; assay type: cell-based; conditions: Plasmodium falciparum, read-out: IC50 against Dd2
Description: as §1, §2

[3] = system: P. falciparum chloroquine-sensitive and -resistant strains; assay type: cell-based, Plasmodium falciparum; conditions: highest CQR IC50 value / lowest CQS IC50 value
From the text: This value provides a quantitative measurement of the antiplasmodial activity against CQR strains relative to that against CQS strains. The higher the RI value, the higher the level of resistance.

[4] = Drug exposure in P. berghei-infected mice (blood concentrations on D0); assay type: in vivo, C57BL/6 mice; conditions: oral 20 and 40 mg/kg
[5] = Pharmacokinetic study in uninfected C57BL/6 mice (LC-MS/MS of blood); assay type: in vivo; conditions: for clearance / Vd: iv; for Vd: read-out: Vss; for AUC(0-inf) / half-life: mouse; for blood levels after oral dosing: oral 20 mg/kg, uninfected mice
Description: A comprehensive pharmacokinetic (PK) study of compound 1 and 2 was performed on 10-week old male and female C57BL/6 mice (20–30 g) obtained from the University of Cape Town Medical School Animal Unit. The mice were housed in ventilated cages at room temperature (approximately 22 °C) with constant supply of food and water and were monitored twice daily. The study was authorized by the Faculty of Health Science Animal Research Ethics Committee before commencement: Reference No. 012/020. All the work was performed according to the guidelines established by Austin et al.. […] In each experiment a group of five animals were dosed orally (10 ml/kg) at 20 mg/kg and intravenously (5 ml/kg) via the dorsal penile vein at 4 mg/kg under anaesthesia. For oral dosage, a gavage needle was used for the administration of test compounds directly into the lower oesophagus or stomach. […] Lithium heparin-coated MiniCollect® Plasma Tubes (Lasec, South Africa) were used to collect the blood samples. The collected blood samples were placed on ice immediately after sampling, and were frozen at −80 °C until analysis. The blood samples stored at −80 °C were thawed at room temperature and then mixed by vortex to ensure homogeneity. Twenty µl of blood was mixed with 50 µl Milli-Q water (Millipore, USA) and 150 µl acetonitrile (Merck). The mixture was vortexed for 15 s, sonicated for 10 min and centrifuged at 13,000g for 5 min. The supernatant was transferred to a flat-bottomed glass insert and placed in a glass vial and placed in the autosampler for analysis. A liquid chromatography–mass spectrometry (LC/MS/MS) system was employed for the quantification of the compounds in mouse blood. The LC system employed was an ultra-fast liquid chromatography (UFLC) system (Shimadzu) and the separation of the compounds was performed on a Phenomenex, Luna 5 μm PFP (2), 100 Å, 50 mm × 2 mm analytical column. The mobile phase A consisted of 0.1 % formic acid in water (v/v) and mobile phase B consisted of acetonitrile. The flow rate was set at 500 µl/min and the temperature of the column was maintained at 40 °C. […] The detection of the compounds was performed on an AB Sciex 3200 Q-Trap mass spectrometer which was operated at unit resolution in the multiple reaction monitoring (MRM) mode. The calibration range for all the compounds was between 7.8 and 1000 ng/ml and the accuracy (% Nom) for the calibration curves was between 90.3 and 104.0 %. […] Non-compartmental analysis was performed on each individual set of data using PK Solutions 2.0 Pharmacokinetic Analysis Software (Summit Research Services, Montrose, USA). The following PK parameters were calculated: apparent terminal half-life [t½ (min)], total exposure [AUC0–α (µM min)], volume of distribution (l/kg) and plasma clearance [CL (l/min/kg)].

[6] = Toxicity observed in dosed mice; assay type: in vivo; conditions: dosed orally and intravenously
Description: They both presented poor PK properties following oral administration. However, the LC–MS/MS assay only detected the parent compound and no assays were conducted to measure or identify any possible metabolites. The decision to perform efficacy studies was based on the possibility that compounds 1 and 2 may have high first pass effect which may cause low bioavailability. After the infected mice were dosed orally and intravenously with compound 1 and 2, the blood concentrations were measured in P. berghei-infected mice at different time intervals to measure the exposure of the infected mice to the drug. […] High toxicity was also detected when dosed orally and intravenously. The PK studies were only conducted for 9 h, and therefore the symptoms of toxicity were not severe. However, with efficacy studies the mice are dosed every day for 4 days, and this might cause distress to the mice because the toxic effect of the drug will be more severe. The efficacy study for compound 2 is not reported in this paper.

[7] = Oral 10 mg/kg/day, 4 days (reference drug)
[8] = chloroquine-sensitive strain D10, 48 h, pLDH, mean of three independent experiments
[9] = chloroquine-resistant strain K1, 48 h, pLDH, mean of three independent experiments
[10] = chloroquine-sensitive strain 3D7, 48 h, pLDH, mean of three independent experiments
[11] = chloroquine-resistant strain Dd2, 48 h, pLDH, mean of three independent experiments
[12] = both sexes, C57BL/6, mouse, whole blood, 4 mg/kg, intravenous 4 mg/kg, uninfected C57BL/6 mice, blood
[13] = both sexes, whole blood, intravenous 4 mg/kg, uninfected C57BL/6 mice, blood
[14] = intravenous 4 mg/kg, uninfected C57BL/6 mice, blood, 4 mg/kg

## CCN(CC)CCCC(C)Nc1ccnc2cc(Cl)ccc12 (stereo not drawn) [Chloroquine, reference compound]
P. falciparum D10; D10, 48 h
  IC50: 23 nM
P. falciparum K1; K1, 48 h
  IC50: 279 ± 2 nM
[1]; [7]
  Average % parasitemia Day 4: 0%
  Average % parasitemia Day 6: 0%
  Average % parasitemia Day 9: 2 ± 1.6%
  % reduction of parasitemia Day 9: 92.0 ± 0.4%
[2]
  half-life: 7 h
  oral bioavailability: 79–90%
P. falciparum 3D7; 3D7, 48 h
  IC50: 19 nM
P. falciparum Dd2; DD2, 48 h
  IC50: 180 ± 10 nM

## O=c1cc(CNCCCCCCNc2ccnc3cc(Cl)ccc23)n(C2CC2)cc1OCc1ccccc1 [Compound 1]
P. falciparum D10; [8]
  IC50: 47 ± 10 nM
P. falciparum K1; [9]
  IC50: 505 ± 100 nM
[1]; IV 4 mg/kg/day, 4 days
  Average % parasitemia Day 4: 0.4 ± 0.4%
  Average % parasitemia Day 6: 1.8 ± 1.4%
  Average % parasitemia Day 9: 8.1 ± 5%
[1]; IV 4 mg/kg/day, 4 days, 4 mg/kg/day
  % reduction of parasitemia Day 9: 61.9 ± 26%
[1]; IV 4 mg/kg/day, 4 days, listed as compound 1, 4 mg/kg/day
  % reduction of parasitemia Day 9: 62%
[1]; IV 8 mg/kg/day, 4 days
  Average % parasitemia Day 4: 0%
  Average % parasitemia Day 6: 0.9 ± 0.9%
  Average % parasitemia Day 9: 5.1 ± 1.7%
[1]; IV 8 mg/kg/day, 4 days, 8 mg/kg/day
  % reduction of parasitemia Day 9: 82.9 ± 2.5%
[1]; IV 8 mg/kg/day, 4 days, listed as compound 1, 8 mg/kg/day
  % reduction of parasitemia Day 9: 83%
[1]; Oral 20 mg/kg/day, 4 days
  Average % parasitemia Day 4: 5.3 ± 3.9%
  Average % parasitemia Day 6: 22.7 ± 10%
  Average % parasitemia Day 9: 24.2 ± 5.6%
  % reduction of parasitemia Day 9: 3.7 ± 5.6%
[1]; Oral 40 mg/kg/day, 4 days
  Average % parasitemia Day 4: 5.9 ± 2%
  Average % parasitemia Day 6: 10.7 ± 5%
  Average % parasitemia Day 9: 48.6 ± 12%
  % reduction of parasitemia Day 9: −93.8 ± 49.3%
[1]; oral groups (20 and 40 mg/kg/day), day 4
  parasitaemia on day 4 in mice dosed orally: ~5%
[3]
  RI (resistance index): 10.7
P. falciparum 3D7; [10]
  IC50: 64 ± 20 nM
P. falciparum Dd2; [11]
  IC50: 463 ± 120 nM
[4]
  blood concentration levels in infected mice dosed orally: below the detection level
[5]; [12]
  clearance: 28 mL/min/kg
  Vd: 20 L/kg
[5]; both sexes, C57BL/6, mouse, whole blood, intravenous 4 mg/kg, 9 h post-dosing, read-out: blood level after 9 h
  concentration at 9 h: 160 nM
[5]; [13]
  AUC(0-inf): 3.27 µM·h
  half-life: 4.3 ± 1.02 h
[5]; [14]
  CL: 27.6 ± 8 mL/min/kg
  Vss: 20.1 ± 6 L/kg
[5]; mice, oral dosing, in words
  oral bioavailability: poor oral bioavailability
[5]
  blood levels after oral dosing: below the LOQ

## CCc1c(OCc2ccccc2)c(=O)ccn1CCCCCCNc1ccnc2cc(Cl)ccc12 [Compound 2]
P. falciparum D10; [8]
  IC50: 122 ± 30 nM
P. falciparum K1; [9]
  IC50: 89 ± 10 nM
[6]
  toxicity: High toxicity
[3]
  RI (resistance index): 2.2
P. falciparum 3D7; [10]
  IC50: 41 ± 20 nM
P. falciparum Dd2; [11]
  IC50: 76 ± 10 nM
[4]
  blood concentration levels in infected mice dosed orally: below the detection level
[5]; [12]
  clearance: 366 ± 46.6 mL/min/kg
  Vd: 154.1 ± 1 L/kg
[5]; both sexes, C57BL/6, mouse, whole blood, intravenous 4 mg/kg, 2 h post-dosing, read-out: blood level after 2 h
  concentration at 2 h: 30 nM
[5]; [13]
  AUC(0-inf): 0.42 µM·h
  half-life: 0.7 ± 0.2 h
[5]
  blood levels after oral dosing: below the LOQ
